Results on 17 compounds are retold here after paper PMC10146204, “Inhibition of Acetylcholinesterase by Novel Lupinine Derivatives” (Molecules, 2023).

“Also recorded” adds a separate entry of the source.

T1 sequence (P22303 32-614): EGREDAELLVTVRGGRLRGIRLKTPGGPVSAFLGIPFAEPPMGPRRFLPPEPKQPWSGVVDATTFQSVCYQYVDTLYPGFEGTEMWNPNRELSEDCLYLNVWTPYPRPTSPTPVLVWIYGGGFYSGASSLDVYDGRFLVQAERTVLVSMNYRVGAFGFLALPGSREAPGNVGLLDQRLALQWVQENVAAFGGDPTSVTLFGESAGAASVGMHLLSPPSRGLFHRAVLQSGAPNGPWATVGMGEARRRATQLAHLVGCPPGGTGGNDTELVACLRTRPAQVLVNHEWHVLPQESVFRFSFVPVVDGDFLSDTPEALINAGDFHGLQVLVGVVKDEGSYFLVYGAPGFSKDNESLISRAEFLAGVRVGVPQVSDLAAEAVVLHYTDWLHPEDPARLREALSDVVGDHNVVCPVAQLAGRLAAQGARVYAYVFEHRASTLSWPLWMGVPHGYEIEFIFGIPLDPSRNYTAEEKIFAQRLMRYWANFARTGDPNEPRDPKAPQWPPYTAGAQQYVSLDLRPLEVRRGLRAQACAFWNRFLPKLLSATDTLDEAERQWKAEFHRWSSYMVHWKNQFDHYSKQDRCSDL

One data set has as its target T1, AChE (Homo sapiens, UniProt P22303).
T1 construct: purchased Sigma-Aldrich Chemical Co
Assay: not given
The following applies: previously reported AChE inhibitors with a 4-benzyloxyphenyl moiety; ref [36],[37],[38]; read-out: AChE inhibitory activity IC50 of previously reported inhibitors; cited from earlier work.
A word on the IC50: it is the concentration needed to halve the response being measured. Turning to `Cn1c(/C=N/Nc2ccc(OCc3ccccc3)cc2)nc2ccccc21` [Compound A, (E)-2-((2-(4-(benzyloxy)phenyl)hydrazineylidene)methyl)-1-methylbenzimidazole], the IC50 was 11.8 µM.

`CCc1nnc(/N=C2\NC(=O)/C(=C\c3ccc(OCc4ccccc4)cc3)S2)s1` [Compound B, (E)-5-((E)-4-(benzyloxy)benzylidene)-2-((5-ethyl-1,3,4-thiadiazol-2-yl)imino)thiazolidin-4-one]: the IC50 is 1.2 µM.

Turning to `COc1cc(/C=C/C(=O)NCCNc2cc(C)nc3ccccc23)ccc1OCc1ccccc1` [Compound C, (E)-3-(4-(benzyloxy)-3-methoxyphenyl)-N-(2-((2-methylquinolin-4-yl)amino)ethyl)acrylamide], the IC50 is 0.6 µM.

The next data set deals with T1, AChE. As to the kind of experiment: biochemical. It is filed as biochemical.
Conditions: not given
The source says:
The kit is based on an improved Ellman method, whereby thiocholine produced from AChE activity forms a yellow color with 5,5′-dithiobis(2-nitrobenzoic acid), and the intensity the color (412 nm) is proportional to the enzyme activity.
The compound `O=C(CCCCl)OC[C@@H]1CCCN2CCCC[C@H]12` [Compound 22] returned an IC50 of 39.5 ± 7.2 µM.

Compound `O=C(Nc1ccc(Cl)c(Cl)c1)OC[C@@H]1CCCN2CCCC[C@H]12` [Compound 41] had an IC50 of 99.4 ± 12.3 µM.

Still in this data set, the particulars now being: Experimentally determined class, Active or NA.
Regarding `O=C(CCCCl)OC[C@@H]1CCCN2CCCC[C@H]12` [Compound 22], the “Observed class for AChE inhibitory activity” value is given as “Active”.

`CC1(C)CC(=O)c2c(C(=O)OC[C@@H]3CCCN4CCCC[C@H]34)coc2C1` [Compound 25]: the “Observed class for AChE inhibitory activity” value is “Active”.

Still in this data set, the particulars now being: N.A.: no activity was observed at the highest concentration tested (150 µM); 5–7 tested concentrations; read-out: AChE inhibitory activity IC50.
On to `Nc1nc(SCc2cn(C[C@@H]3CCCN4CCCC[C@H]34)nn2)n[nH]1` [Compound 5, 3-((1-(((1S,9aR)-Octahydro-1H-quinolizine-1-yl)methyl)-1H-1,2,3-triazole-4-yl)methylthio)-1H-1,2,4-triazole-5-amine], for which the IC50 came out at 101 ± 23.9 µM.

Regarding `CCOc1cc(C=O)ccc1OCc1cn(C[C@@H]2CCCN3CCCC[C@H]23)nn1` [Compound 7, 3-Ethoxy-4-((1-(((1S,9aR)-octahydro-1H-quinolizine-1-yl)methyl)-1H-1,2,3-triazole-4-yl)methoxy)benzaldehyde], the IC50 came out at 73.4 ± 16.7 µM.

With `COc1cccc(-c2cn(C[C@@H]3CCCN4CCCC[C@H]34)nn2)c1` [Compound 13], the IC50 was 51.8 ± 9.2 µM.

On to `COc1cc(-c2cn(C[C@@H]3CCCN4CCCC[C@H]34)nn2)ccc1OCc1ccccc1` [Compound 15, (1S,9aR)-1-((4-(4-(benzyloxy)-3-methoxyphenyl)-1H-1,2,3-triazol-1-yl)methyl)octahydro-2H-quinolizine], for which the IC50 was determined as 7.2 µM.

Regarding `CCc1cc(C(=O)OCc2cn(C[C@@H]3CCCN4CCCC[C@H]34)nn2)c(O)c(C(C)(C)C)c1` [Compound 16], the IC50 came out at 141 ± 15.3 µM.

For `O=Cc1ccc(OCc2cn(C[C@@H]3CCCN4CCCC[C@H]34)nn2)cc1` [Compound 17], the half-inhibitory concentration (IC50) worked out at 68.1 ± 2.2 µM.

For `CC1(C)CC(=O)c2c(C(=O)OC[C@@H]3CCCN4CCCC[C@H]34)coc2C1` [Compound 25], the IC50 stood at 24.4 ± 3.4 µM.

As for `COc1ccccc1/C=C/C(=O)OC[C@@H]1CCCN2CCCC[C@H]12` [Compound 43], the IC50 stood at 89.6 ± 7.7 µM.

On to `O=C1CC(C(=O)OC[C@@H]2CCCN3CCCC[C@H]23)C2(CCCCC2)O1` (some centres unmarked) [Compound 44], for which the IC50 was 68.9 ± 5.8 µM.

Consider `COc1cccc(/C=C/C(=O)OC[C@@H]2CCCN3CCCC[C@H]23)c1OC` [Compound 49], for which the IC50 amounted to 111 ± 12.5 µM.

Regarding `Cc1cc(C)c(C(=O)OC[C@@H]2CCCN3CCCC[C@H]23)cc1C` [Compound 64], the IC50 was determined as 74.1 ± 6.8 µM.

Staying with this data set, now noted: double-reciprocal Lineweaver–Burk plot.
For the compound `COc1cc(-c2cn(C[C@@H]3CCCN4CCCC[C@H]34)nn2)ccc1OCc1ccccc1` [Compound 15, (1S,9aR)-1-((4-(4-(benzyloxy)-3-methoxyphenyl)-1H-1,2,3-triazol-1-yl)methyl)octahydro-2H-quinolizine], the “Mechanism of AChE inhibition (Lineweaver–Burk plot)” value is “mixed type of inhibition; also recorded: mixed-type mechanism”.

In another data set the test system is human THP-1 monocytic cells. The experiment in a line: Cytotoxicity assay (CellTiter-Glo Luminescent Cell Viability Assay). It is filed as cell-based. Particulars: THP-1 cells, concentrations up to 50 μM, 24 h. Here is the method:
The cytotoxicity of the synthesized compounds was analyzed using a CellTiter-Glo Luminescent Cell Viability Assay Kit (Promega, Madison, WI, USA) according to the manufacturer’s protocol. Human THP-1 monocytic cells obtained from ATCC (Manassas, VA, USA) were cultured in RPMI 1640 medium (Mediatech Inc., Herndon, VA, USA) supplemented with 10% (v/v) FBS, 100 μg/mL streptomycin, and 100 U/mL penicillin. For the cytotoxicity assay, the cells were cultured at a density of 10^4 cells/well with different concentrations of the test compounds added ([…], 12.5, 25, 50 μM; final concentration of DMSO was 1%) for 24 h at 37 °C and 5% CO2. Following treatment, substrate was added to the cells, and the samples were analyzed with a Fluoroscan Ascent FL microplate reader.
On the technique in general: In ATP-based viability assays light output follows the ATP content of the culture.
As for “[(1R,9aR)-octahydro-2H-quinolizin-1-yl]methane [Lupinine]”, the Cytotoxicity entry was “no cytotoxicity”.
